Counter-ions that a name gives are not always drawn.
biological target: T1, synaptosomal serotonin uptake (Rattus norvegicus, UniProt P31652); test: inhibition of synaptosomal reuptake of tritiated serotonin (5-HT inhibition assay); type: biochemical; set-up: key: *: Compounds designated with an asterisk are most preferred, based on abilities to inhibit synoptosomal serotonin uptake; settings: among compounds with IC50 less than 100 nM
T1 construct: from tissue
Protocol: Determination of endogenous monoaminergic re-uptake inhibition values both for serotonin and norepinephrine was accomplished using test methods described by P. Skolnick, et al., Br. J. Pharmacology, (1985), 86, pp. 637-644; with only minor modifications. In vitro IC50 (nM) test values were determined for representative compounds of Formula I based on their inhibition of synaptosomal re-uptake of tritiated serotonin.
Compounds of the invention were tested for their ability to inhibit serotonin reuptake. Determination of endogenous monoaminergic reuptake inhibition values for serotonin was accomplished using test methods described by P. Skolnick et al., Br. J. Pharmacology (1985), 86, pp. 637-644; with only minor modifications.
In vitro IC50 (nM) test values were determined for representative compounds of Formula I based on their inhibition of synaptosomal reuptake of tritiated serotnin.

T1 sequence (P31652 whole entry): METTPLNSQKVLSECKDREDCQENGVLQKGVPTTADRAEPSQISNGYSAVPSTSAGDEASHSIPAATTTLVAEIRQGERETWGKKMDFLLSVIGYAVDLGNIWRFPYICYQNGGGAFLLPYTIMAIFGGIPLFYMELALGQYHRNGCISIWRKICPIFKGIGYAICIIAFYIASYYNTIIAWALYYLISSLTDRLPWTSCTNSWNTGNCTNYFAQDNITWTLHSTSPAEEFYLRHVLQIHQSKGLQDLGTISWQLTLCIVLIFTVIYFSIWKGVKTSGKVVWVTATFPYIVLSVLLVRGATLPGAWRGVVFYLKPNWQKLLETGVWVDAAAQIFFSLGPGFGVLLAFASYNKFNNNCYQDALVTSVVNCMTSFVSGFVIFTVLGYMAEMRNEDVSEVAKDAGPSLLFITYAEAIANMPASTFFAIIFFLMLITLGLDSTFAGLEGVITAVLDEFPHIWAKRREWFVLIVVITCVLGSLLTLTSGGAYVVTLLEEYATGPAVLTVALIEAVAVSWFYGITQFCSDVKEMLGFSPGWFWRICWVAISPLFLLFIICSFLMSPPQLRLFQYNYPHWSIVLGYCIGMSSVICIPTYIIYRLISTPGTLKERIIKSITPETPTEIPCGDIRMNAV

SMILES	asterisk designation: most preferred, based on ability to inhibit synaptosomal serotonin uptake
COc1cccnc1N1CCN(CCC2CSc3ccccc32)C(C)C1.Cl (stereo not shown) [Example 6, 1-[2-(2,3-dihydro-benzo[b]thien-3-yl)ethyl]-4-(3-methoxy-2-pyridinyl)-2-methylpiperazine hydrochloride]	*
COc1cccnc1N1CCN(CCCC2CSc3ccccc32)C(C)C1 (stereo not shown) [Example 7, hydrochloride]	*
COc1cccnc1N1CCN(CCC2CSc3ccccc32)CC1.Cl (stereo not shown) [Example 17, 1-[2-(2,3-dihydro-benzo[b]thien-3-yl)ethyl]-4-(3-methoxy-2-pyridinyl)piperazine hydrochloride]	*
COc1cccnc1N1CCN(CCCc2coc3ccc(F)cc23)CC1.Cl [Example 20, 1-[3-(5-fluorobenzo[b]furan-3-yl)propyl]-4-(3-methoxy-2-pyridinyl)piperazine hydrochloride]	*
COc1cccnc1N1CCN(CCCc2coc3ccc(Cl)cc23)CC1.Cl [Example 25, 1-[3-(5-chlorobenzo[b]furan-3-yl)propyl]-4-(3-methoxy-2-pyridinyl)piperazine hydrochloride]	*
COc1cncnc1N1CCN(CCCc2coc3ccc(Cl)cc23)C(C)C1.Cl (stereo not shown) [Example 27, 1-[3-(5-chlorobenzo[b]furan-3-yl)propyl]-4-(5-methoxy-4-pyrimidinyl)-2-methylpiperazine hydrochloride]	*
COc1cncnc1N1CCN(CCCc2coc3ccccc23)CC1C.Cl (stereo not shown) [Example 28, 1-[3-(benzo[b]furan-3-yl)propyl]-4-(5-methoxy-4-pyrimidinyl)-3-methylpiperazine hydrochloride]	*
COc1cccnc1N1CCN(CCCc2coc3ccc(C)cc23)CC1.Cl [Example 29, 1-[3-(5-methylbenzo[b]furan-3-yl)propyl]-4-(3-methoxy-2-pyridinyl)piperazine hydrochloride]	*
COc1cncnc1N1CCN(CCCc2coc3ccc(C)cc23)C(C)C1.Cl (stereo not shown) [Example 30, 1-[3-(5-methylbenzo[b]furan-3-yl)propyl]-4-(5-methoxy-4-pyrimidinyl)-2-methylpiperazine hydrochloride]	*
COc1cccnc1N1CCN(CCCc2coc3ccccc23)CC1.Cl [Example 31, 1-[3-(benzo[b]furan-3-yl)propyl]-4-(3-methoxy-2-pyridinyl)piperazine hydrochloride]	*
COc1cncnc1N1CCN(CCCc2coc3ccccc23)C(C)C1 (stereo not shown) [Example 32, 1-[3-(benzo[b]furan-3-yl)propyl]-4-(5-methoxy-4-pyrimidinyl-2-methylpiperazine hydrochloride]	*
COc1cccnc1N1CCN(CCc2coc3ccccc23)CC1.Cl [Example 33, 1-[2-(benzo[b]furan-3-yl)ethyl]-4-(3-methoxy-2-pyridinyl)piperazine hydrochloride]	*
COc1cccnc1N1CCN(CCCc2csc3ccccc23)C(C)C1.Cl (stereo not shown) [Example 41, 1-[3-(benzo[b]thien-3-yl)propyl]-4-(3-methoxy-2-pyridinyl)-2-methylpiperazine hydrochloride]	*
COc1cncnc1N1CCN(CCCc2csc3ccccc23)C(C)C1.Cl (stereo not shown) [Example 50, 1-[3-(benzo[b]thien-3-yl)propyl]-4-(5-methoxy-4-pyrimidinyl)-2-methylpiperazine hydrochloride]	*
COc1cncnc1N1CCN(CCCc2csc3ccccc23)CC1C.Cl (stereo not shown) [Example 51, 1-[3-(benzo[b]thien-3-yl)propyl]-4-(5-methoxy-4-pyrimidinyl)-3-methylpiperazine hydrochloride]	*
COc1cncnc1N1CCN(CCCc2csc3ccc(F)cc23)CC1.Cl [Example 52, 1-[3-(5-fluorobenzo[b]thien-3-yl)propyl]-4-(5-methoxy-4-pyrimidinyl)piperazine hydrochloride]	*
COc1cncnc1N1CCN(CCCc2csc3ccc(F)cc23)CC1C.Cl (stereo not shown) [Example 55, 1-[3-(5-fluorobenzo[b]thien-3-yl)propyl]-4-(5-methoxy-4-pyrimidinyl)-3-methylpiperazine hydrochloride]	*
COc1cccnc1N1CCN(CCCc2csc3ccccc23)CC1.O=C(O)/C=C/C(=O)O [Example 56, 1-[3-(benzo[b]thien-3-yl)propyl]-4-(3-methoxy-2-pyridinyl)piperazine fumarate]	*
COc1cccnc1N1CCN(CCc2csc3ccccc23)CC1.Cl [Example 57, 1-[2-(benzo[b]thien-3-yl)ethyl]-4-(3-methoxy-2-pyridinyl)piperazine hydrochloride]	*
COc1cccnc1N1CCN(CCc2csc3ccccc23)C(C)C1.Cl (stereo not shown) [Example 58, 1-[2-(benzo[b]thien-3-yl)ethyl]-4-(3-methoxy-2-pyridinyl)-2-methylpiperazine hydrochloride]	*
COc1cncnc1N1CCN(CCCc2csc3ccccc23)CC1.Cl [Example 59, 1-[3-(benzo[b]thien-3-yl)propyl]-4-(5-methoxy-4-pyrimidinyl)piperazine hydrochloride]	*
COc1cc(Cl)cnc1N1CCN(CCCc2csc3ccccc23)C(C)C1.Cl (stereo not shown) [Example 60, 1-[3-(benzo[b]thien-3-yl)propyl]-4-(5-chloro-3-methoxy-2-pyridinyl)-2-methylpiperazine hydrochloride]	*
COc1cncnc1N1CCN(CCCc2csc3ccc(F)cc23)C(C)C1.Cl (stereo not shown) [Example 63, 1-[3-(5-fluorobenzo[b]thien-3-yl)propyl]-4-(5-methoxy-4-pyrimidinyl)-2-methylpiperazine hydrochloride]	*
COc1cncnc1N1CCN(CCc2csc3ccccc23)CC1C.Cl (stereo not shown) [Example 64, 1-[2-(benzo[b]thien-3-yl)ethyl]-4-(5-methoxy-4-pyrimidinyl)-3-methylpiperazine hydrochloride]	*
COc1cncnc1N1CCN(CCCc2csc3ccc(C#N)cc23)CC1.Cl [Example 65, 1-[3-(5-cyanobenzo[b]thien-3-yl)propyl]-4-(5-methoxy-4-pyrimidinyl)piperazine hydrochloride]	*

From US5763444A, “Antidepressant 1-arylalkyl-4-(alkoxy pyridinyl)-and 4-(alkoxypyrimidinyl) piperazine derivatives” (Bristol-Myers Squibb Company, priority 1996, dated 1998)
